Non-standard residues stand in square brackets, D forms with d. Residues, ends and D or L forms follow the SMILES beside them. Phe(2-F) = N[C@@H](Cc1ccccc1F)C(=O)O; Orn = NCCC[C@H](N)C(=O)O; Dab = NCC[C@H](N)C(=O)O
How the values were obtained:
[1] = molecular target: T1, BSA (Bos taurus, UniProt P02769); settings: 298 K, one-to-one stoichiometry; cited from earlier work
T1 construct: purchased Sigma Aldrich
Experimental: The enthalpy change (ΔH°), the entropic change (ΔS°), and the free energy change (ΔG°) were calculated from Equations (4) and (5):(4) […]=−ΔH^°/RT+ΔS^°/R (5) ΔG^°=ΔH^°−TΔS^°=−RTlnKb where Kb is the binding constant and R is the universal gas constant. To determine the thermodynamic parameters, the van’t Hoff plot w ...

[2] = molecular target: bovine serum albumin (BSA) (Bos taurus, UniProt P02769); experiment: Fluorescence quenching of BSA by peptides L1–3
bovine serum albumin (BSA), sequence (P02769 25-607): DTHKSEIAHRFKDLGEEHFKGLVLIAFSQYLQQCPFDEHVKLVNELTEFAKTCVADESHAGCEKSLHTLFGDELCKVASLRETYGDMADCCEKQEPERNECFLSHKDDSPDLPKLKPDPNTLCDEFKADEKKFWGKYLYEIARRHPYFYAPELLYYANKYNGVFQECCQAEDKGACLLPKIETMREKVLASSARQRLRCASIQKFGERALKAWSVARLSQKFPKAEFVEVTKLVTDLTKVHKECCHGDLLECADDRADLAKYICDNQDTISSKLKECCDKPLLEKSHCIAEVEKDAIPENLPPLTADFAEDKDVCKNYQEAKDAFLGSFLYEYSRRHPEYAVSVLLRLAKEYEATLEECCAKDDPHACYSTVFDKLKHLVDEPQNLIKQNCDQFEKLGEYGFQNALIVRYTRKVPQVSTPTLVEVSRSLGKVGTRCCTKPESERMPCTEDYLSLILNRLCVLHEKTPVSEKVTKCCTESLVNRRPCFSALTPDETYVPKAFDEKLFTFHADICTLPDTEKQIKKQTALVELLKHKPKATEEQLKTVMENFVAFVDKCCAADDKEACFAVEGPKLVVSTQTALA
Experimental: Fluorescence spectroscopy was carried out to characterize the mechanism of the interaction between three plasma proteins, BSA, AAG, and GGF, with the studied peptides. The fluorescence spectra of protein were collected during titration of L1–L3. The excitation wavelength was set at λ = 280 nm (both Trp and Tyr residues were excited).
To confirm this, the fluorescence data were further analyzed by the Stern–Volmer Equation (1) after correction due to the infer filter effect (2):(1) F0/F=1+kqτ[Q]=1+KSV (2) Fcorr=Fobs10^(Aex+Aem)/2 where F0 and F are the fluorescence intensities (after correction) of the protein and protein in the presence of L1–3, respectively, kq is the quenching rate constant, τ0 the average lifetime, [Q] is the L1–3 concentration, Ksv is the Stern–Volmer constant, and Fcorr, and Fobs are the corrected and observed fluorescence intensities, respectively. Aex and Aem are the absorbance values at excitation and emission wavelengths, respectively. A linear regression fit was used to calculate the value of the Stern–Volmer constant (Ksv). Then, assuming the average lifetime of the fluorophore in the excited state for a biomolecule as 10^−8 s, the quenching rate constant (kq) was computed. For dynamic quenching, the maximum scatters collision quenching rate constant for different quenchers with the biopolymers was reported to be 2 × 10^10 dm^3mol^−1s^−1 [55, 56]. […] Collisional quenching occurs when the excited-state fluorophore is deactivated by contact with some other molecule in solution (by collisions). […] This is a dynamic mechanism of quenching. The quenching constant characterizes the quenching mechanism. The maximum value for collisional quenching is 2 × 10^10 dm^3mol^−1s^−1. […] For further confirmation, measurements were made at, in addition to 297 K, temperatures 303 and 308 K. Experimental data points were fitted and analyzed using Equation (1).
Both for the complexes with BSA and with GGF, the binding constant (Kb) and the binding stoichiometry (n) were calculated. […] The values of Kb and n were calculated from the slope and the intercept of the log [(F0 − F)/F] versus log [Q] plot (Figure 2).
The forces involved in the interaction can be identified by measurement at different temperatures and then by thermodynamic analysis. The signs of the thermodynamic parameters identify the type of interactions. The enthalpy change (ΔH°), the entropic change (ΔS°), and the free energy change (ΔG°) were calculated from Equations (4) and (5):(4) […]=−ΔH^°/RT+ΔS^°/R (5) ΔG^°=ΔH^°−TΔS^°=−RTlnKb where Kb is the binding constant and R is the universal gas constant. To determine the thermodynamic parameters, the van’t Hoff plot was first conducted, i.e., the temperature dependence of the binding constant, according to Equation (4). The Kb values at the three temperatures were fitted by the linear regression method. The values of ΔH and ΔS were calculated from the slope and intercept at the fitted line. Next, the free energy change (ΔG°) was obtained from Equation (5).

[3] = 297 K, BSA 1.0 µM, phosphate buffer
[4] = 308 K, BSA 1.0 µM, phosphate buffer

T1 sequence (P02769 25-607): as above

Row | binding constant Kb [2, 3] | binding constant Kb [2, 4] | binding constant Kb ([2]; 303 K, BSA 1.0 µM, phosphate buffer) | binding constant Kb ([2]; BSA, 297 K) | Compound | Kb constant to BSA [1]
1 | – | – | – | – | CS(=O)(=O)CCNCc1ccc(-c2ccc3ncnc(Nc4ccc(OCc5cccc(F)c5)c(Cl)c4)c3c2)o1 [lapatinib] | 2.24 × 10^5 dm^3mol^−1
2 | 2.52 ± 0.07 × 10^4 dm^3mol^−1 | 0.76 ± 0.03 × 10^4 dm^3mol^−1 | – | – | N=C(N)NCCC[C@H](NC(=O)[C@H](CCCCN)NC(=O)[C@H](Cc1ccccc1F)NC(=O)[C@@H]1CCCN1C(=O)[C@H](CCCN)NC(=O)CNC(=O)[C@H](CCN)NC(=O)[C@H](CCN)NC(=O)[C@@H](N)CCCCN)C(=O)O [L3, Lys-Dab-Dab-Gly-Orn-Pro-Phe(2-F)-Lys-Arg] (H-K[Dab][Dab]G[Orn]P[Phe(2-F)]KR-OH) | –
3 | – | – | – | – | COc1cc2ncnc(Nc3ccc(F)c(Cl)c3)c2cc1OCCCN1CCOCC1 [gefitinib] | 8.32 × 10^4 dm^3mol^−1
4 | 3.39 ± 0.06 × 10^4 dm^3mol^−1 | 0.55 ± 0.02 × 10^4 dm^3mol^−1 | 1.10 ± 0.05 × 10^4 dm^3mol^−1 | 3.39 × 10^4 dm^3mol^−1 | C[C@H](NC(=O)[C@H](CCN)NC(=O)[C@@H](N)CCCCN)C(=O)NCC(=O)N[C@@H](CCCN)C(=O)N1CCC[C@H]1C(=O)N[C@@H](Cc1c[nH]cn1)C(=O)N[C@@H](CCCCN)C(=O)N[C@@H](CCCNC(=N)N)C(=O)O [L2, Lys-Dab-Ala-Gly-Orn-Pro-His-Lys-Arg] (H-K[Dab]AG[Orn]PHKR-OH) | –
5 | – | – | – | – | CCN(CC)CCNC(=O)c1c(C)[nH]c(/C=C2\C(=O)Nc3ccc(F)cc32)c1C [sunitinib] | 1.32 × 10^5 dm^3mol^−1
